Results as given in patent US12491170B2, “Stable treprostinil prodrugs” (United Therapeutics Corporation, priority 2020, dated 2025).

assay: Stability in cryopreserved hepatocytes, rat; details: not given

Compound | Trep Concentration (μM) 0 min [µM] | Trep Concentration (μM) 15 min [µM] | Trep Concentration (μM) 30 min [µM] | Trep Concentration (μM) 60 min [µM] | Trep Concentration (μM) 120 min [µM]
CCCCCC(CCC1C(O)CC2Cc3c(cccc3OCC(=O)O)CC21)OC(=O)COc1ccccc1 (centres unmarked) [LXV] | 0.0517 | 0.379 | 0.289 | 0.237 | 0.2
CCCCCC(CCC1C(O)CC2Cc3c(cccc3OCC(=O)O)CC21)OC(=O)c1cccc(O)c1 (centres unmarked) [LX] | 0 | 0.021 | 0.0343 | 0.0477 | 0.0634

same assay, conditions: rat

Compound | AUC [µmol·min/L]
CCCCCC(CCC1C(O)CC2Cc3c(cccc3OCC(=O)O)CC21)OC(=O)COc1ccccc1 (centres unmarked) [LXV] | 29.24
CCCCCC(CCC1C(O)CC2Cc3c(cccc3OCC(=O)O)CC21)OC(=O)c1cccc(O)c1 (centres unmarked) [LX] | 5.14

assay: Stability in cryopreserved hepatocytes, dog; details: not given

Compound | Trep Concentration (μM) 0 min [µM] | Trep Concentration (μM) 15 min [µM] | Trep Concentration (μM) 30 min [µM] | Trep Concentration (μM) 60 min [µM] | Trep Concentration (μM) 120 min [µM]
CCCCCC(CCC1C(O)CC2Cc3c(cccc3OCC(=O)O)CC21)OC(=O)COc1ccccc1 (centres unmarked) [LXV] | 0.0135 | 0.484 | 0.465 | 0.406 | 0.373
CCCCCC(CCC1C(O)CC2Cc3c(cccc3OCC(=O)O)CC21)OC(=O)c1cccc(O)c1 (centres unmarked) [LX] | 0 | 0.00428 | 0.00492 | 0.00784 | –

same assay, conditions: dog

Compound | AUC [µmol·min/L]
CCCCCC(CCC1C(O)CC2Cc3c(cccc3OCC(=O)O)CC21)OC(=O)COc1ccccc1 (centres unmarked) [LXV] | 47.28
CCCCCC(CCC1C(O)CC2Cc3c(cccc3OCC(=O)O)CC21)OC(=O)c1cccc(O)c1 (centres unmarked) [LX] | 0.88

assay: not given; details: dog

Compound | AUC [µmol·min/L]
CCCCCC(CCC1C(O)CC2Cc3c(cccc3OCC(=O)O)CC21)OC(=O)COc1ccccc1 (centres unmarked) [LXV] | 49.22
CCCCCC(CCC1C(O)CC2Cc3c(cccc3OCC(=O)O)CC21)OC(=O)c1cccc(O)c1 (centres unmarked) [LX] | 2.51

assay: Stability in cryopreserved hepatocytes, human; details: not given

Compound | Trep Concentration (μM) 0 min [µM] | Trep Concentration (μM) 15 min [µM] | Trep Concentration (μM) 30 min [µM] | Trep Concentration (μM) 60 min [µM] | Trep Concentration (μM) 120 min [µM]
CCCCCC(CCC1C(O)CC2Cc3c(cccc3OCC(=O)O)CC21)OC(=O)COc1ccccc1 (centres unmarked) [LXV] | 0.0193 | 0.559 | 0.515 | 0.452 | 0.39
CCCCCC(CCC1C(O)CC2Cc3c(cccc3OCC(=O)O)CC21)OC(=O)c1cccc(O)c1 (centres unmarked) [LX] | 0 | 0.0671 | 0.102 | 0.123 | 0.137

same assay, conditions: human

Compound | AUC [µmol·min/L]
CCCCCC(CCC1C(O)CC2Cc3c(cccc3OCC(=O)O)CC21)OC(=O)COc1ccccc1 (centres unmarked) [LXV] | 52.16
CCCCCC(CCC1C(O)CC2Cc3c(cccc3OCC(=O)O)CC21)OC(=O)c1cccc(O)c1 (centres unmarked) [LX] | 12.95

assay: Stability in liver microsomes, dog; details: not given

Compound | Trep Concentration 0 min [µM] | Trep Concentration 10 min [µM] | Trep Concentration 20 min [µM] | Trep Concentration 30 min [µM] | Trep Concentration 60 min [µM]
CCCCCC(CCC1C(O)CC2Cc3c(cccc3OCC(=O)O)CC21)OC(=O)COc1ccccc1 (centres unmarked) [LXV] | 0.903 | 0.912 | 0.864 | 0.801 | 0.728
CCCCCC(CCC1C(O)CC2Cc3c(cccc3OCC(=O)O)CC21)OC(=O)c1cccc(O)c1 (centres unmarked) [LX] | 0.0189 | 0.0283 | 0.0363 | 0.044 | 0.059

assay: not given; details: rat

Compound | AUC [µmol·min/L]
CCCCCC(CCC1C(O)CC2Cc3c(cccc3OCC(=O)O)CC21)OC(=O)COc1ccccc1 (centres unmarked) [LXV] | 51.11
CCCCCC(CCC1C(O)CC2Cc3c(cccc3OCC(=O)O)CC21)OC(=O)c1cccc(O)c1 (centres unmarked) [LX] | 2.72

assay: Stability in liver microsomes, rat; details: not given

Compound | Trep Concentration 0 min [µM] | Trep Concentration 10 min [µM] | Trep Concentration 20 min [µM] | Trep Concentration 30 min [µM] | Trep Concentration 60 min [µM]
CCCCCC(CCC1C(O)CC2Cc3c(cccc3OCC(=O)O)CC21)OC(=O)COc1ccccc1 (centres unmarked) [LXV] | 0.889 | 0.898 | 0.885 | 0.888 | 0.738
CCCCCC(CCC1C(O)CC2Cc3c(cccc3OCC(=O)O)CC21)OC(=O)c1cccc(O)c1 (centres unmarked) [LX] | 0.0226 | 0.033 | 0.0396 | 0.0481 | 0.0609

assay: Stability in liver microsomes, human; details: not given

Compound | Trep Concentration 0 min [µM] | Trep Concentration 10 min [µM] | Trep Concentration 20 min [µM] | Trep Concentration 30 min [µM] | Trep Concentration 60 min [µM]
CCCCCC(CCC1C(O)CC2Cc3c(cccc3OCC(=O)O)CC21)OC(=O)COc1ccccc1 (centres unmarked) [LXV] | 0.921 | 0.762 | 0.67 | 0.594 | 0.351
CCCCCC(CCC1C(O)CC2Cc3c(cccc3OCC(=O)O)CC21)OC(=O)c1cccc(O)c1 (centres unmarked) [LX] | 0.105 | 0.14 | 0.137 | 0.126 | 0.0865

same assay, conditions: human

Compound | AUC [µmol·min/L]
CCCCCC(CCC1C(O)CC2Cc3c(cccc3OCC(=O)O)CC21)OC(=O)COc1ccccc1 (centres unmarked) [LXV] | 36.07
CCCCCC(CCC1C(O)CC2Cc3c(cccc3OCC(=O)O)CC21)OC(=O)c1cccc(O)c1 (centres unmarked) [LX] | 7.11
